Measured values taken from paper PMC4077696 (PLoS Biology, 2014).
Counter-ions that a name gives are not always drawn.

Tests used:
[1] = system: CC(C)C[C@H](NC(=O)[C@@H](NC(=O)[C@H](CCCNC(=N)N)NC(=O)[C@H](CCCCN)NC(=O)[C@H](CC(N)=O)NC(=O)[C@H](CCCNC(=N)N)NC(=O)c1ccc(N=Nc2ccc(N(C)C)cc2)cc1)[C@@H](C)O)C(=O)N[C@@H](C)C(=O)N[C@@H](CCC(N)=O)C(=O)N[C@@H](CCCCN)C(=O)N[C@@H](CCC(N)=O)C(=O)N[C@@H](CCC(=O)NCCNc1cccc2c(S(=O)(=O)O)cccc12)C(N)=O; test: PEXEL cleavage assay with immunopurified PvPMVHA and fluorogenic KAHRP PEXEL peptide; assay type: biochemical, Plasmodium vivax; settings: other: Michaelis–Menten, 2 h; pH 6.4; 37.0 °C
Procedure: (§5) To investigate PvPMVHA activity, we affinity purified it, as well as the PfPMVHA control, using anti-HA agarose, as previously described [13],[18].
(§6) PMV-agarose was prepared by adding α-HA-agarose (Sapphire Bioscience) to parasite lysates, prepared by sonication in 1% Triton X-100/PBS, for 1 h before extensive washing in same [12],[13]. […] Samples were excited at 340 nm and fluorescence emission measured at 492 nm using an Envision fluorescence plate reader (Perkin-Elmer) heated to 37°C for 150 min. Samples were shaken between measurements.

[2] = system: CC(C)C[C@H](NC(=O)[C@@H](NC(=O)[C@H](CCCNC(=N)N)NC(=O)[C@H](CCCCN)NC(=O)[C@H](CC(N)=O)NC(=O)[C@H](CCCNC(=N)N)NC(=O)c1ccc(N=Nc2ccc(N(C)C)cc2)cc1)[C@@H](C)O)C(=O)N[C@@H](C)C(=O)N[C@@H](CCC(N)=O)C(=O)N[C@@H](CCCCN)C(=O)N[C@@H](CCC(N)=O)C(=O)N[C@@H](CCC(=O)NCCNc1cccc2c(S(=O)(=O)O)cccc12)C(N)=O; test: PEXEL cleavage assay with immunopurified PfPMVHA and fluorogenic KAHRP PEXEL peptide; assay type: biochemical, Plasmodium falciparum; settings: other: Michaelis–Menten, 2 h; pH 6.4; 37.0 °C
Procedure: (§1) To investigate PvPMVHA activity, we affinity purified it, as well as the PfPMVHA control, using anti-HA agarose, as previously described,[18]. […] The proteins were incubated with a fluorogenic peptide of nine amino acids that contained the PEXEL sequence from knob-associated histidine-rich protein (KAHRP), and efficient processing was observed by both enzymes (Figure 1E). Cleavage of KAHRP by PfPMVHA was previously shown to occur after Leu (RTL↓) by mass spectrometry, and this position was also confirmed for PvPMVHA (Figure S2B–E). […] In contrast, no processing was observed when the PEXEL Arg and Leu residues were mutated to Ala (ATAAQ), consistent with the substrate specificity of PfPMV (Figure 1E). To verify that processing was due to HA-tagged PMV rather than other co-precipitated proteases, we expressed in P. falciparum a mutant of PvPMVHA or PfPMVHA [13], where one or both catalytic Asp residues were mutated to Ala (see Figure 1A,B). Following affinity purification, the mutant enzymes were incubated with KAHRP PEXEL peptides, but no processing was observed (Figure 1E; blue, white), confirming that the PEXEL-dependent cleavage activity observed for each protease was attributable only to HA-tagged PMV.
(§2) Each compound was incubated with PfPMVHA in the presence of KAHRP PEXEL peptides.
(§3) PMV-agarose was prepared by adding α-HA-agarose (Sapphire Bioscience) to parasite lysates, prepared by sonication in 1% Triton X-100/PBS, for 1 h before extensive washing in same,[13]. PEXEL cleavage assays (20 µl total volume) consisted of 0.2 µl PMV-agarose in digest buffer (25 mM Tris, 25 mM MES, pH 6.4) with 1.5 µM FRET peptide substrate (DABCYL-[…]-E-EDANS, DABCYL-[…]-E-EDANS, LifeTein; DABCYL-[…]-E-EDANS, DABCYL-[…]-E-EDANS; Mimotopes) ± inhibitor. Samples were excited at 340 nm and fluorescence emission measured at 492 nm using an Envision fluorescence plate reader (Perkin-Elmer) heated to 37°C for 150 min. Samples were shaken between measurements. For determination of the peptide cleavage position by PvPMVHA, the fluorogenic peptide (DABCYL-[…]-E-EDANS), representing the wild-type KAHRP PEXEL sequence, was incubated with and without PvPMVHA at 37°C for 48 h. Products of the incubation were detected by a molecular formula algorithm using an Agilent 6200 TOF/6500 series mass spectrometer.

[3] = molecular target: PMV in P. falciparum–infected erythrocytes (Plasmodium falciparum, UniProt Q8I6Z5); test: PEXEL processing of GFP reporters in parasites by immunoblot; assay type: cell-based; settings: 5 h treatment, immunoblot
Procedure: To assess whether 916 could inhibit PMV in P. falciparum–infected erythrocytes, parasites expressing the PEXEL protein P. falciparum erythrocyte membrane protein 3 (PfEMP3) fused to green fluorescent protein (GFP) were treated with increasing concentrations of inhibitor, and PEXEL processing was evaluated by immunoblot. […] A GFP-only band, representing degraded chimera in the food vacuole, was also observed at ∼26 kDa (Figure 3A).
(§4) Trophozoites (30–34 h) expressing PfEMP3-GFP, KAHRP-GFP, or SERA5s-GFP were magnet-purified (Miltenyi Biotech), incubated with inhibitors in 400 µl total volume at 37°C for 1–5 h, treated with 0.09% saponin containing inhibitor, and washed pellets were solubilized in Laemmli's buffer, boiled for 3 min, and frozen at −20°C. Proteins were separated by SDS-PAGE, transferred to nitrocellulose and blocked in 10% skim milk/PBS-T, and probed with rat α-HA (Roche 3F10; 1∶1,000), mouse α-GFP (Roche; 1∶1,000), rabbit α-Aldolase (1∶1,000), rabbit α-HSP70 (1∶4,000), rabbit α-PfPMV (1∶1,000), or rabbit α-Hyp8 (1∶500) primary antibodies followed by horseradish peroxidase-conjugated secondary antibodies (Silenius) and detected by enhanced chemiluminescence (Amersham).

[4] = system: Human Foreskin Fibroblasts (HFF); test: Toxicity against Human Foreskin Fibroblasts; assay type: cell-based; settings: Fibroblast
[5] = system: P. falciparum protein translation; test: Global protein synthesis by radiolabeling parasite proteins after drug treatment; assay type: cell-based, Plasmodium falciparum; settings: for Global protein synthesis after 23 h treatment of rings: 15 µM or 50>15 µM, BFA 5 µg/ml; for Global protein synthesis after 5 h treatment of trophozoites: 15 or 50 µM, BFA 10 µg/ml, 15 min labeling
Procedure: To gain further insight into the effects of 916, 024, and 025 on parasites, we assessed global protein synthesis following drug treatment by radiolabeling parasite proteins. Treatment of trophozoites with inhibitor for 5 h prior to radiolabeling had no detectable effect on translation, even at 50 µM concentrations (Figure S4A), indicating the compounds are not direct inhibitors of the translation machinery. We next assessed protein synthesis following 23 h of drug treatment of ring stage parasites (aged 1–3 h old at the initiation of treatment). […] Indeed, Giemsa smears following treatment identified a small proportion of pyknotic parasites in the population (results not shown). […] It is possible that PMV inhibition by 916 treatment has a similar but weaker effect to BFA, in that it causes the accumulation of uncleaved PEXEL precursors in the ER, perturbing ER transport, and that this negatively affects translation by an ER stress response. An alternative possibility is that translation was decreased slightly as a result of parasites dying from 916-mediated impairment of erythrocyte remodeling. Either way, the profile for 916 was different to that seen for 024 and 025, even at 50 µM, indicating the latter analogs likely kill parasites via a different mechanism to 916.
Whole parasite proteins were radiolabeled by culturing magnet-purified trophozoites (wild-type 3D7 or expressing PfEMP3-GFP) in Met/Cys-free medium for 30 min at 37°C before addition of 800 µCi/ml ^35S-Met/Cys (Perkin/Elmer) to the medium for the indicated times. Pellets were snap frozen in ethanol/dry ice bath and stored at −80°C. For radiolabeling in the presence of PMV inhibitor, parasites were treated with 20 µM WEHI-916 for 5 h before labeling commenced. For pulse-chases, proteins were radiolabeled in the presence or absence of inhibitor, as above, before further culture in radiolabel-free, inhibitor-free complete medium for the indicated times at 37°C before snap freezing. Frozen samples were either solubilized in Laemmli's buffer (Figure S4) or solubilized in 1% Triton X-100/PBS with protease inhibitor cocktail (Roche) and PfEMP3-GFP species immunopurified with α-GFP agarose (MBL) at 4°C for 2 h (Figures 3 and S3), and proteins were resolved by SDS-PAGE, visualized by autoradiography (7-d exposures), and quantified using a GS-800 Calibrated Densitometer (Bio-Rad).

PfPMV = PfPMV (Plasmodium falciparum, UniProt Q8I6Z5); test: PEXEL cleavage assay with immunopurified PfPMVHA and fluorogenic KAHRP PEXEL peptide; assay type: biochemical; settings: IC50 PfPMV, PfPMVHA
Procedure: as §1, §2, §3

PvPMV = PvPMV (Plasmodium vivax, UniProt A5K302); test: PEXEL cleavage assay with immunopurified PvPMVHA and fluorogenic KAHRP PEXEL peptide; assay type: biochemical
Procedure: as §5, §6

signal peptidase = test: Signal peptide cleavage of SERA5s-GFP in parasites by immunoblot; assay type: cell-based, Plasmodium falciparum
Procedure: This protein contains a signal peptide but lacks a PEXEL and is efficiently secreted to the parasitophorous vacuole (Figure S3B).
as §4

HEpG2 cells = test: Toxicity against human HEpG2 cells; assay type: cell-based; settings: toxicity against human cell line

Sequence of PMV in P. falciparum–infected erythrocytes (Q8I6Z5 whole entry, the tested form may be a part): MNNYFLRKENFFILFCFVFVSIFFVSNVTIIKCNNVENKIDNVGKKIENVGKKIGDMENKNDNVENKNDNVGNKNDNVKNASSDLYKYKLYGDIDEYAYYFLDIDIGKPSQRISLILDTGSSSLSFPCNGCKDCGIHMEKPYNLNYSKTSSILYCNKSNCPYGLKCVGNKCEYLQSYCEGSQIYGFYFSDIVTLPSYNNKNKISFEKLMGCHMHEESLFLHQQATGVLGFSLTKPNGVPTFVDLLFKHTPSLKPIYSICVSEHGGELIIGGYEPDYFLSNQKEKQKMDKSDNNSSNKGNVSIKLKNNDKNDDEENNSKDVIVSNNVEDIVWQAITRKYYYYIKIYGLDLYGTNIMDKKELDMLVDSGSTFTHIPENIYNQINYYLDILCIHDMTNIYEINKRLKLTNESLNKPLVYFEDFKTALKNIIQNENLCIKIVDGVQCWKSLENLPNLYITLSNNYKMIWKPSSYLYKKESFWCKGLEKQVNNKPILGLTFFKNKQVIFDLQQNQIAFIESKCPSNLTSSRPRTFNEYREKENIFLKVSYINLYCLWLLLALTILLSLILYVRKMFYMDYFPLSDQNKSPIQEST
Sequence of PvPMV (A5K302 35-536): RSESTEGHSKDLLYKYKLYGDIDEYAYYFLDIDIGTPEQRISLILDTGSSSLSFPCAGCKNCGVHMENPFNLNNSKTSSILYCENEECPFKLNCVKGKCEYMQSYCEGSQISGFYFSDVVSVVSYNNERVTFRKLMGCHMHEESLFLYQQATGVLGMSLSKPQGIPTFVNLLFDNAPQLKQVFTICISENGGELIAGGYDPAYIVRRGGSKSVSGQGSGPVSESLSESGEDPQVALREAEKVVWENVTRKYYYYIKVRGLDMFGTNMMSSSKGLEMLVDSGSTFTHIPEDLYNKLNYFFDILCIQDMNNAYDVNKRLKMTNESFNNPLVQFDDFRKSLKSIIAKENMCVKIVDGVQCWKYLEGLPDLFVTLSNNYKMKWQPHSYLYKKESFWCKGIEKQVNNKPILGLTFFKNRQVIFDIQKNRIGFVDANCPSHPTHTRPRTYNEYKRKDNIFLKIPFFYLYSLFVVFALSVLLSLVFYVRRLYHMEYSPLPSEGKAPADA
Sequence of PfPMV (Q8I6Z5 34-590): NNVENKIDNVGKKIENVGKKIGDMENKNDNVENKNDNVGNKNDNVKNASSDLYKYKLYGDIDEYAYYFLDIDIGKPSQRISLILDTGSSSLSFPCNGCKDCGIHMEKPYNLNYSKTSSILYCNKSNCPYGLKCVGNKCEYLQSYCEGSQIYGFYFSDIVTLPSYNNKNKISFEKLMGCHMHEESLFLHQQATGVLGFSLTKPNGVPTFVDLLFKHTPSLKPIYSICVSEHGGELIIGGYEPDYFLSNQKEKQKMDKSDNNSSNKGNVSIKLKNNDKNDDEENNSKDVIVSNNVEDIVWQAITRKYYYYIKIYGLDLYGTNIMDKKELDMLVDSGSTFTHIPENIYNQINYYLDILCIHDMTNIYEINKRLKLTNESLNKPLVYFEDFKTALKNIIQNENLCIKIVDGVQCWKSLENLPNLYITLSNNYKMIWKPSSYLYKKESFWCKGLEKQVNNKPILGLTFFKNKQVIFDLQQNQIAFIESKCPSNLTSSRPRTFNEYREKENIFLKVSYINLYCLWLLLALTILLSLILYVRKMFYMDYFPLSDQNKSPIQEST

PvPMV (Plasmodium vivax Sal-1) was tested, and the Km [1] was 9.7 (±3.0) µM.
With PfPMV (Plasmodium falciparum 3D7) the Km [2] was 11.7 (±1.8) µM.
With `CC(C)C[C@H](NC(=O)[C@@H](NC(=O)[C@H](CCCCN)NS(=O)(=O)Cc1ccccc1)C(C)C)[C@@H](O)CC(=O)NCCc1ccccc1` [compound 024, PhCH2SO2-Lys(NH2)-Val-Sta-NH(CH2)2Ph .TFA] the “PEXEL processing of KAHRP-GFP in parasites, in words” value ([3]; 20 and 50 µM) was “no effect”, the “PEXEL processing of PfEMP3-GFP in parasites, in words” value ([3]; up to 50 µM) was “no effect” and the IC50 [4] was > 100 µM. The “Global protein synthesis after 23 h treatment of rings” value (“Global protein synthesis … of rings” below) [5] was “no defect in global protein synthesis”, the “Global protein synthesis after 5 h treatment of trophozoites” value [5] was “no defect in global protein synthesis” and the IC50 (PfPMV) was > 100 µM. For the same compound, the “Activity against PvPMVHA, in words” value (PvPMV) was “weak activity”, the IC50 (PvPMV) was > 100 µM and the “Signal peptide cleavage of SERA5s-GFP, in words” value (signal peptidase; 20 µM for 5 h) was “no defect”. For the same compound, the “Effect on PMV or signal peptidase activity in parasites, in words” value (signal peptidase; concentrations up to 50 µM) was “no affect” and the IC50 (HEpG2 cells) was > 100 µM.
For `C[C@H]1CCC/C=C/[C@@H]2C[C@H](O)C[C@H]2[C@H](O)/C=C/C(=O)O1` [Brefeldin A, reference compound], the “Global protein synthesis … of rings” value [5] was “severely impaired translation”, the “Global protein synthesis … of rings” value ([5]; listed as BFA) was “severely reduced translation” and the “Global protein synthesis after 5 h treatment of trophozoites” value [5] was “no defect in global protein synthesis”.
